{
  "source": "patent US6541193B2",
  "about": "“Screening the activity of drugs for central nervous system (CNS)” (Council of Scientific & Industrial Research, priority 2001, dated 2003)",
  "test_system": "Sh^5eag^1 mutant flies",
  "assay": "Recovery time from diethyl ether anesthesia in flies fed drug in food",
  "format": "in vivo, Drosophila melanogaster",
  "details": "Sh^5eag^1 males",
  "procedure": "Standard Drosophila manipulation methods were followed. Cultures were grown on a medium containing maize powder, sugar, yeast and Nipagin. Flies were maintained and further manipulated at room temperature. Experimental conditions were kept identical. The double mutant Sh^5eag^1 was generated using standard methods of Drosophila genetics.\nEqual number of Sh^5eag^1 males, varying in age between 6-9 days, were treated in 25×100 mm glass vials with either normal food (NF) or food containing 1 mg/ml of phenobarbital sodium (PS; NF+PS) for 5 days. Twenty males were treated in each vial. Flies were first anesthesized with ether and healthy looking individuals shifted to 10 empty vials in such a way that each vial received two flies, one from each treatment. Before shifting, flies from one of the two treatments were marked on their wings for the purpose of identification. Flies were allowed to recover fully. After an hour, each fly pair was subjected to the following test one by one. The two flies, inside a vial with 800 mg of cotton plug, were simultaneously anesthetized by pouring 0.2 ml of diethyl ether on to the plug. After about 1.5 min, during which the vial was gently shaken continuously so that the flies remained at the bottom throughout, the two individuals were immediately shifted to two fresh empty vials. Time at this point was considered 0 min. […]",
  "data": [
    {"smiles": "CCC1(c2ccccc2)C(=O)NC(=O)NC1=O", "note": "[PS, phenobarbital sodium]", "values": [
      {"measurement": "effect on recovery from ether anesthesia", "setting": "1 mg/ml in food for 5 days, vs normal food", "value": "delays recovery from ether anesthesia"},
      {"measurement": "recovery time (time to first stand up on legs after etherisation)", "setting": "food containing 1 mg/ml for 5 days, diethyl ether anesthesia, NF control 2.4±0.44 min, p<0.02", "value": "7.2 ± 1.78", "unit": "min"}
    ]}
  ]
}
